# PubChem BioAssay AID2649 (Southern Research Specialized Biocontainment Screening …, 2010)
# Calls of active or inactive are those of the source.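 How the source made its calls: active means lowest viability as percent of untreated cell control, measured with 5% serum, under 70% cytotoxic; inactive means the rest.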
# How the values were obtained:
# [1] = system: MAGI-CCR5 HeLa cells viability, MTS, 10% serum; assay: cytotoxicity in MAGI-CCR5 cells, SAR follow-up, cytotoxicity control for HIV-1 antiviral lead project, cell-based, MTS, 5% and 10% serum (AID 2649)
# [2] = system: MAGI-CCR5 HeLa cells viability, MTS, 5% serum; assay: as above
structure (smiles),measurement,setting,value
N#C/C(=C\c1ccc(OCc2ccc(Cl)cc2)cc1)C(=O)Nc1cccc(C(=O)O)c1,CC50,[1],> 100 µM
same,CC50,[2],> 100 µM (inactive)
O=C(O)CCCN1C(=O)/C(=C/c2ccc(-c3nc4ccccc4s3)o2)SC1=S,CC50,[1],> 100 µM
same,CC50,[2],> 100 µM (inactive)
CCOC(=O)C1=C(C)N=c2sc(=Cc3ccc(OCC(=O)O)cc3)c(=O)n2C1c1ccc(OC(C)C)cc1 (stereo not drawn),CC50,[1],> 100 µM
O=C(N/N=C/c1c(O)n(C2CCCCC2)c(=S)[nH]c1=O)c1ccccc1O,CC50,[1],> 100 µM
same,CC50,[2],> 100 µM (inactive)
CCOc1cc(/C=C2\SC(=O)N(CC(=O)Nc3ccccc3F)C2=O)cc([N+](=O)[O-])c1O,CC50,[1],> 100 µM
same,CC50,[2],> 100 µM (inactive)
CSc1nnc(-c2ccccc2N=Cc2c(C)[nH]n(-c3ccc4ccccc4c3)c2=O)c(=O)[nH]1,CC50,[1],> 100 µM
same,CC50,[2],> 100 µM (inactive)
Oc1c(Cl)cc(Cl)c(Cl)c1Cc1c(O)c(Cl)cc(Cl)c1Cl,CC50,[1],> 100 µM
same,CC50,[2],56.5 µM
CCOC(=O)c1sc(N2C(=O)C(O)=C(C(=O)c3ccc(C)o3)C2c2cccc([N+](=O)[O-])c2)nc1C (stereo not drawn),CC50,[1],> 100 µM
same,CC50,[2],> 100 µM (inactive)
COc1cc(/C=N/NS(=O)(=O)c2ccc3ccccc3c2)ccc1OCc1ccc(C(=O)O)cc1,CC50,[1],> 100 µM
same,CC50,[2],> 100 µM (inactive)
O=[N+]([O-])c1cc([N+](=O)[O-])c2oc(-c3ccccc3)c(Br)c2c1O,CC50,[1],> 100 µM
same,CC50,[2],38.7 µM
N#C/C(=C\c1ccc(O)c([N+](=O)[O-])c1)c1nc2ccccc2s1,CC50,[1],> 100 µM
same,CC50,[2],> 100 µM (inactive)
Cc1c2c(=O)n(-c3nc4ccccc4s3)nc-2cc(O)n1Cc1ccccc1,CC50,[1],> 100 µM
same,CC50,[2],> 100 µM (inactive)
CCC(Sc1nc2ccsc2c(=O)n1Cc1ccc(C(=O)O)cc1)C(=O)Nc1ccc(C)c(Cl)c1 (stereo not drawn),CC50,[1],> 100 µM
same,CC50,[2],> 100 µM (inactive)
Cc1c(Cl)cccc1NS(=O)(=O)c1ccc2c(c1)C1C=CCC1C(c1ccc(C(=O)O)cc1)N2 (stereo not drawn),CC50,[1],> 100 µM
same,CC50,[2],71.7 µM
O=C1NC(=S)N(c2ccc(F)cc2)C(=O)/C1=C\c1ccoc1,CC50,[1],> 100 µM
CCC(C)(C)C1CCc2c(sc(NC(=O)c3ccccc3C(=O)O)c2C#N)C1 (stereo not drawn),CC50,[1],> 100 µM
CC(C)NC(=O)c1sc(=S)n2c1[nH]c(=O)c1ccc(C(=O)NCCc3ccc(Cl)cc3)cc12,CC50,[1],> 100 µM
same,CC50,[2],> 100 µM (inactive)
COc1cc(/C=C2\SC(=O)N(c3ccccc3Cl)C2=O)cc([N+](=O)[O-])c1O,CC50,[1],> 100 µM
O=C(O)c1ccccc1N=Nc1c(O)[nH]c2ccc([N+](=O)[O-])cc12,CC50,[1],> 100 µM
same,CC50,[2],> 100 µM (inactive)
COC(=O)c1sc(-c2ccc(C(C)(C)C)cc2)cc1NC(=O)c1ccccc1C(=O)O,CC50,[1],> 100 µM
same,CC50,[2],88.7 µM
CC(C)(C)c1cc(-c2csc(Nc3ccccc3)[n+]2Cc2ccc(C(=O)O)cc2)cc(C(C)(C)C)c1O,CC50,[1],62.4 µM
same,CC50,[2],54.9 µM
